According to PubChem BioAssay AID588401 (Johns Hopkins Ion Channel Center, 2011):
The source made the active and inactive calls.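 The calls were made as follows: active = blocks the choline transporter at some tested dose and yields a fitted dose response curve; inconclusive = no clear call, values can overlap the other calls; inactive = no blocking at any dose or no curve.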

Target: High affinity choline transporter 1 (Homo sapiens) (UniProt Q9GZV3)
Assay: CHT inhibitors, dose response, cell-based, 10-point CRC, membrane potential dye (AID 588401)
Details: HEK293-CHT, choline-induced depolarization, at 25 µM (top of the series)

High affinity choline transporter 1 (Homo sapiens), sequence (Q9GZV3 whole entry, looked up): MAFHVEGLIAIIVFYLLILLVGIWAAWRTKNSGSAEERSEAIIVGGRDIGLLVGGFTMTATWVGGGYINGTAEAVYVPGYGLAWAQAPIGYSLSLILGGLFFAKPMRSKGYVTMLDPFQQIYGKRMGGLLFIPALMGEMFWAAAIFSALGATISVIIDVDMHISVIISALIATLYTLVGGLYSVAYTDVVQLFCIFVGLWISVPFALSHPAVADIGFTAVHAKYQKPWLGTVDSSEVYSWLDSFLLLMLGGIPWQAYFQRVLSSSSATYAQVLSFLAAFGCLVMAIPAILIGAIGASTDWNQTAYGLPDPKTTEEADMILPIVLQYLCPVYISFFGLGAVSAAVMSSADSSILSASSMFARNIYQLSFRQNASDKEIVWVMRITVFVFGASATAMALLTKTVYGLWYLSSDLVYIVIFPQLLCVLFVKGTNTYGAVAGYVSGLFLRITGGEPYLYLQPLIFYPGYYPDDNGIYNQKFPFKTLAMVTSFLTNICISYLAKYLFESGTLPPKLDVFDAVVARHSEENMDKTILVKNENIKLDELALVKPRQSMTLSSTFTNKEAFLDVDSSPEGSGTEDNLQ

Row | SMILES | inhibition (negative values = inhibition)
1 | C=CCn1c(O)c(C(CC)=NC(C)c2ccccc2)c(=O)[nH]c1=O (stereo not given) | inactive

Same assay, conditions: HEK293-CHT, choline-induced depolarization, at 25 µM (top of the series), cells express LV-AA mutant CHT

Row | SMILES | inhibition (negative values = inhibition)
2 | C=CCSc1nc2ccccc2n1Cc1nnc(-c2cccs2)o1 | inactive
3 | COCCCNC(=O)c1ccc(OC)c(OC2CCN(C(C)C)CC2)c1 | inactive
4 | CCCN(CCC)c1nc(N(CCC)CCC)[nH]c(=O)n1 | inactive
5 | CCOC(=O)c1nc(NNC(=O)c2ccc([N+](=O)[O-])cc2)sc1C | inactive
6 | Cc1csc(NC(=O)CSc2nc(C(C)C)nc3ccccc23)n1 | inactive
7 | Oc1c(Cl)cc(Cl)cc1C=Nc1ccc2c(c1)OCCO2 | inactive
8 | CCOC(=O)Cc1csc(NS(=O)(=O)c2ccc3c4c(cccc24)C(=O)N3CC)n1 | inactive
9 | CCc1cc2c(NCc3ccco3)ncnc2s1 | inactive
10 | O=C(O)C1CCN(c2nc(-c3ccccc3)nc3c2oc2ccccc23)CC1 | inactive
11 | CCc1cc2c(N3CCN(c4nnc(CC)s4)CC3)ncnc2s1 | inactive
12 | CC(/C=C1\SC(=S)N(NS(=O)(=O)c2ccccc2)C1=O)=C\c1ccccc1 | inactive
13 | COc1ccc(C(C(=O)NC2CCCCC2)N(C(=O)c2ccco2)c2ccccc2C(C)=O)cc1OC (stereo not given) | inactive
14 | Cn1c(-c2sc3ccccc3c2Cl)n[nH]c1=S | inactive
15 | CCOC(=O)C1CCN(Cc2c(O)c3ccccc3oc2=O)CC1 | inactive
16 | COc1ccc(-n2c(=S)[nH]c3cc(C(=O)NCCCN4CCOCC4)ccc3c2=O)cc1 | inactive
17 | CC(C)Nc1nc(Cl)nc(N(C#N)CN2C(=O)c3ccccc3C2=O)n1 | inactive
18 | CCOc1ccc(/C=C2\SC(=S)N(NS(=O)(=O)c3ccccc3)C2=O)cc1OC | inactive
19 | CCCc1cc(NCC2CCCO2)n2c(nc3ccccc32)c1C#N (stereo not given) | inactive
20 | N#CC(C#N)=C(Nc1ccc(F)cc1)SCc1cccc(F)c1 | inactive
